Test results as given in patent EP4285905A1, “CABERGOLINE OR A PHARMACEUTICALLY ACCEPTABLE SALT OR SOLVATE THEREOF, FOR USE IN PREVENTION OR DELAY OF POST-PREGNANCY BREAST CANCER IN A FEMALE MAMMAL” (Consejo Superior de Investigaciones Cientificas, priority 2022, dated 2023).

Assays:
Brca1/P53-deficient mice [1] = test: Ki-67 immunohistochemistry as a proliferation marker in the mammary epithelium; format: in vivo
Experimental: Subsequently, the same groups of animals indicated were generated and samples were collected from the mammary glands at 1, 3, 7, 30 and 60 days post-gestation (in non-lactating multiparous) or post-weaning (in lactating multiparous, with and without treatment with cabergoline) (N = 5 mice per group at each time studied).
Ki67 staining was performed at the Comparative Molecular Pathology Service of the Cancer Molecular and Cellular Biology Institute in Salamanca. Sections of the sample were made at 3 µm thickness. Sections were fished onto slides specially treated for this technique (Leica BOND Plus Slides, #S21.2113.A, Leica). The staining process was carried out using the Roche Discovery ULTRA research instrument. The protocol performed by the apparatus is as follows: deparaffinization of the sample, heating the slide to 69 °C; cell conditioning that consisted in the unmasking of the epitope by incubating the sample in a buffer formed by TRIS EDTA pH8 at a temperature of 100 °C for 32 minutes. Next, the primary antibody (Rabbit Anti-Human Ki-67 Monoclonal Antibody (Clone SP6), #MAD-020310Q, Master Diagnostica) was applied manually at a 1:50 dilution and incubated at 37 °C for 60 minutes. After incubation of the primary antibody, two washes with HRP buffer were performed. […]
To quantify cells positive for Ki-67 or caspase 3, the Leica Application Suite (LAS) V3.7 program was used. […]

Brca1/P53-deficient mice [2] = test: Indirect estimation of recombinant P53 cells by qPCR of the WT allele (longitudinal cohort); format: in vivo; settings: tumour-free mammary glands
Experimental: In order to obtain a suspension enriched in mouse mammary epithelial cells, from which we can obtain both RNA and proteins and also maintain acceptable viability, the protocol for obtaining mouse mammary organoids was carried out. Once the mammary glands were removed after performing the necropsy of the mouse, they were mechanically disintegrated by cutting with two scalpels. Subsequently, they were incubated in a volume of 10 mL of supplemented medium (DMEM/F12 (50%/50%), 5% fetal bovine serum, 1% penicillin/streptomycin) plus 1.25 mL of collagenase, and 1 mL of trypsin. This enzymatic digestion was carried out for 30 minutes at 37 °C in orbital agitation at 100 revolutions per minute (rpm) (= 1.666 s^-1). […]
DNA was extracted from frozen organoids obtained from mammary glands at 30 and 60 days of involution, and from tumour-free mammary glands of mice that developed breast cancer over time. The quantity and quality of DNA were quantified using a spectrophotometer (Nanodrop). Subsequently, this DNA was used to determine the recombination frequency of the P53 gene in the breasts of the different groups by Quantitative Polymerase Chain Reaction (qPCR). […]
For each sample, qPCR reactions against P53 and Tfrc were performed in parallel and in triplicate. […] The qPCR reactions and the reading of the signal were performed in the Mastercycler epgradient S Realplex2 thermal cycler from Eppendor. […]

In the case of `C=CCN1C[C@H](C(=O)N(CCCN(C)C)C(=O)NCC)C[C@@H]2c3cccc4[nH]cc(c34)C[C@H]21` [cabergoline, 1-[(6-allylergolin-8ß-yl)-carbonyl]-1-[3-(dimethylamino)propyl]-3-ethylurea], the “epithelial proliferation (% of Ki67+ cells)” value (Brca1/P53-deficient mice [1]; 30 days post-weaning) is reported as “profound hypoproliferative state”, the “epithelial proliferation (% of Ki67+ cells)” value (Brca1/P53-deficient mice [1]; 60 days of post-lactational involution) is reported as “hypoproliferative state” and the “WT allele (proportion of WT cells) over time” value (Brca1/P53-deficient mice [2]) is reported as “increase in WT cells was observed over time”.
